Here are results for twelve compounds from patent US20030225230A1, “Polymers for antifouling coatings and a process for the preparation thereof” (Jotun A/S, priority 1995, published 2003).

A short description of data set [1]: Determination of the hydrolysis rate of monomers in alkaline environment (pH 12). The note with it: monomer in aqueous solution, starting pH 12, 25 °C. The format is physicochemical.

Regarding 2-Methacryloyloxymethylbenzoate, in data set [1], the “Hydrolysis Rate (4.5 h)” value is listed as 64.4%.

In the case of 4-Methacryloyloxymethylbenzoate, the “Hydrolysis Rate after 24 h” value in data set [1] turned out to be 54.8%.

Consider `C=C(C)C(=O)Oc1c(Br)cc(Br)cc1Br` [2,4,6-Tribromophenylmethacrylate], for which the melting point came out at 140 °C. Besides, in data set [1], the “Hydrolysis Rate after 24 h” value was found to be 13.3%.

`C=C(C)C(=O)Sc1nc(-c2ccccc2)ns1` [3-Phenyl-5-methacryloylthio-1,2,4-thiadiazole] came in with a melting point of 110 °C. Further, in data set [1], the “Hydrolysis Rate after 24 h” value is 12.6%.

On to `C=C(C)C(=O)Sc1ccc(Cl)cc1` [4-Chlorothlophenylmethacrylate], for which, in data set [1], the “Hydrolysis Rate after 24 h” value amounted to 78.0%.

For `C=C(C)C(=O)Oc1ccc(NC(C)=O)cc1` [4-Methacryloyloxy acetanilide], in data set [1], the “Hydrolysis Rate after 24 h” value is reported as 32.9%.

Take `C=C(C)C(=O)Oc1ccc(OC)cc1` [4-Methoxyphenylmethacrylate]: the melting point was 40 °C. In addition, the “Hydrolysis Rate after 24 h” value in data set [1] was 43.2%.

The compound `C=C(C)C(=O)Oc1ccc(Br)cc1C=O` [5-Bromo-2-methacryloyloxybenzaldehyde] came in with a melting point of 52 °C. In data set [1], the “Hydrolysis Rate after 24 h” value was 35.6%.

In the case of `C=C(C)C(=O)OCC(=O)O` [Methacryloytoxy acetic acid], the “Hydrolysis Rate after 24 h” value in data set [1] turned out to be 70.1%.

`C=C(C)C(=O)OCC(=O)OC` [Methoxycarbonylmethylmethacrylate] displayed a melting point of 60 °C. In data set [1], the “Hydrolysis Rate (4.5 h)” value worked out at 63.1%.

For the compound `C=C(C)C(=O)OCC(=O)OC(C)(C)C` [t-Butoxycarbonylmethylmethacrylate], the melting point was determined as 65 °C. Further, the “Hydrolysis Rate after 24 h” value in data set [1] is on record as 77.6%.

On to Ethyloxythioglycolic acid methacrylate, for which the “Hydrolysis Rate after 24 h” value in data set [1] is 80.2%.
